Reference: ChEMBL document CHEMBL3045823, “Synthesis and Herbicidal Activities of the O-Syn and O-Anti Benzyl Epoxycyclopentyl Ethers” (2004)
Activity calls are given as the source filed them. The rule behind the calls is not given here.

Legend:
[1] = tested on: Echinochloa oryzicola; assay: Herbicide activity against Echinochloa oryzicola assessed as inhibition of root growth compound treated to seeds measured after 7 days; assay type: functional
[2] = tested on: Echinochloa oryzicola; assay: Herbicide activity against Echinochloa oryzicola assessed as inhibition of growth of first sheath compound treated to seeds measured after 7 days; assay type: functional
[3] = tested on: Echinochloa oryzicola; assay: Herbicide activity against Echinochloa oryzicola assessed as inhibition of root growth compound treated at 3 ppm to seeds measured after 7 days; assay type: functional, organism-based
[4] = tested on: Echinochloa oryzicola; assay: Herbicide activity against Echinochloa oryzicola assessed as inhibition of shoot growth compound treated at 3 ppm to seeds measured after 7 days; assay type: functional, organism-based

Structure (SMILES) | I50 [1] [ppm] | growth inhibition (GI) [2] | I50 [2] [ppm] | growth inhibition (GI) [3] | growth inhibition (GI) [4]
CCCCC[C@]12O[C@H]1CC[C@H]2OCc1ccccc1C (racemic) | 0.25 | Active | – | – | –
CCCCC[C@]12O[C@H]1CC[C@H]2OCc1ccccc1F (racemic) | 0.03 | – | 0.2 | – | –
CCCCC[C@]12O[C@H]1CC[C@H]2OCc1ccccc1Cl (racemic) | 0.5 | Active | – | – | –
CCCCC[C@]12O[C@H]1CC[C@H]2OCc1ccccc1 (racemic) | 0.03 | – | 0.2 | – | –
CCCCC[C@@]12O[C@@H]1CC[C@H]2OCc1ccccc1 (racemic) | – | Active | – | inactive | inactive
CCCCC[C@@]12O[C@@H]1CC[C@H]2OCc1ccccc1C (racemic) | – | Active | – | inactive | inactive
CCCCC[C@@]12O[C@@H]1CC[C@H]2OCc1ccccc1Cl (racemic) | – | Active | – | inactive | inactive
CCCCC[C@@]12O[C@@H]1CC[C@H]2OCc1ccccc1F (racemic) | – | Active | – | inactive | inactive
